{"source": "paper PMC9942120", "about": "(iScience, 2023)", "key": {"PLOD3": {"target": "T1, PLOD3 (Homo sapiens, UniProt O60568)", "T1 sequence (O60568 25-738)": "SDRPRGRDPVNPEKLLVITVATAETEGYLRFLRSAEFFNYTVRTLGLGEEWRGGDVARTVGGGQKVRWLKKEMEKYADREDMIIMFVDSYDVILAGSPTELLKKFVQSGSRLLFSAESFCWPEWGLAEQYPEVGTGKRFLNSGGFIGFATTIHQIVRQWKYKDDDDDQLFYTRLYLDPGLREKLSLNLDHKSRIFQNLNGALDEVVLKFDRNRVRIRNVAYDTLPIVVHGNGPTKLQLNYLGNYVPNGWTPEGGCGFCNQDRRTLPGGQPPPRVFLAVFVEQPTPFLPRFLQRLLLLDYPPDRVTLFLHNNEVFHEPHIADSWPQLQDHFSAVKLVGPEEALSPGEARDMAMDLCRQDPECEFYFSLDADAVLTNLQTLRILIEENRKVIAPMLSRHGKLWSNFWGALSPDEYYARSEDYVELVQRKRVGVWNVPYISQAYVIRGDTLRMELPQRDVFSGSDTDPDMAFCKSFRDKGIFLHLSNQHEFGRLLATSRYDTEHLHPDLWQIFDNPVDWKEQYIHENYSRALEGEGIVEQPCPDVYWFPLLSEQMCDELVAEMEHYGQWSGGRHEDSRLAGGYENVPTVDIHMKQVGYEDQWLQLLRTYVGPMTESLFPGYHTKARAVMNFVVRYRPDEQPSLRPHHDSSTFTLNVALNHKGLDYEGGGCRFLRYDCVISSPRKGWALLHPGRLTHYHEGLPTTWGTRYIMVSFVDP", "test": "direct LC-MS/MS profiling of modified tryptic peptides", "assay_type": "cell-based", "conditions": "covalent at Cys691; H358 cells, […] AMG510, […] h (methods print […] h)"}, "ANXA2": {"target": "ANXA2 (Homo sapiens, UniProt P07355)", "sequence (P07355 2-339)": "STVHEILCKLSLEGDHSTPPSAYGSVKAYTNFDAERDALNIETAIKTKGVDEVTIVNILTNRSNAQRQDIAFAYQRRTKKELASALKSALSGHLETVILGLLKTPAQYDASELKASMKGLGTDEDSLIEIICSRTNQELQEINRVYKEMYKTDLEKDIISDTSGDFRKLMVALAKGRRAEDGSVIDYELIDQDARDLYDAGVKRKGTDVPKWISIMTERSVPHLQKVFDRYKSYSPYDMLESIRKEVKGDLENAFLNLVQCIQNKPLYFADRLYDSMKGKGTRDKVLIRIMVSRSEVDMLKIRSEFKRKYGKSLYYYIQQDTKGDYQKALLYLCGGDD", "test": "direct LC-MS/MS profiling of modified tryptic peptides", "assay_type": "cell-based", "conditions": "covalent at Cys9; H358 cells, […] AMG510, […] h (methods print […] h)"}, "ALDOA [1]": {"target": "T2, ALDOA (Homo sapiens, UniProt P04075)", "T2 sequence (P04075 2-364)": "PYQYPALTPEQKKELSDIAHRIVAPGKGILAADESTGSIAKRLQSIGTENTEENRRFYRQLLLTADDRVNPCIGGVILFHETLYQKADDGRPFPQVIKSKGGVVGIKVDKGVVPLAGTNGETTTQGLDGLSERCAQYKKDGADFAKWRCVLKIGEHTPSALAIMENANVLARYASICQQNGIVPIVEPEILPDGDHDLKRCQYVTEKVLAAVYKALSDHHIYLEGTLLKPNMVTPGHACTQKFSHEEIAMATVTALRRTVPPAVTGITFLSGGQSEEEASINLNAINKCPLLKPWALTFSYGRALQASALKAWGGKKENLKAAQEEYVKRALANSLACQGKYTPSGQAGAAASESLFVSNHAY", "test": "LC-MS/MS site mapping", "assay_type": "cell-based", "conditions": "covalent at Cys339; H358 cells treated with AMG510"}, "UBE2O": {"target": "T3, UBE2O (Homo sapiens, UniProt Q9C0C9)", "T3 sequence (Q9C0C9 1-1292)": "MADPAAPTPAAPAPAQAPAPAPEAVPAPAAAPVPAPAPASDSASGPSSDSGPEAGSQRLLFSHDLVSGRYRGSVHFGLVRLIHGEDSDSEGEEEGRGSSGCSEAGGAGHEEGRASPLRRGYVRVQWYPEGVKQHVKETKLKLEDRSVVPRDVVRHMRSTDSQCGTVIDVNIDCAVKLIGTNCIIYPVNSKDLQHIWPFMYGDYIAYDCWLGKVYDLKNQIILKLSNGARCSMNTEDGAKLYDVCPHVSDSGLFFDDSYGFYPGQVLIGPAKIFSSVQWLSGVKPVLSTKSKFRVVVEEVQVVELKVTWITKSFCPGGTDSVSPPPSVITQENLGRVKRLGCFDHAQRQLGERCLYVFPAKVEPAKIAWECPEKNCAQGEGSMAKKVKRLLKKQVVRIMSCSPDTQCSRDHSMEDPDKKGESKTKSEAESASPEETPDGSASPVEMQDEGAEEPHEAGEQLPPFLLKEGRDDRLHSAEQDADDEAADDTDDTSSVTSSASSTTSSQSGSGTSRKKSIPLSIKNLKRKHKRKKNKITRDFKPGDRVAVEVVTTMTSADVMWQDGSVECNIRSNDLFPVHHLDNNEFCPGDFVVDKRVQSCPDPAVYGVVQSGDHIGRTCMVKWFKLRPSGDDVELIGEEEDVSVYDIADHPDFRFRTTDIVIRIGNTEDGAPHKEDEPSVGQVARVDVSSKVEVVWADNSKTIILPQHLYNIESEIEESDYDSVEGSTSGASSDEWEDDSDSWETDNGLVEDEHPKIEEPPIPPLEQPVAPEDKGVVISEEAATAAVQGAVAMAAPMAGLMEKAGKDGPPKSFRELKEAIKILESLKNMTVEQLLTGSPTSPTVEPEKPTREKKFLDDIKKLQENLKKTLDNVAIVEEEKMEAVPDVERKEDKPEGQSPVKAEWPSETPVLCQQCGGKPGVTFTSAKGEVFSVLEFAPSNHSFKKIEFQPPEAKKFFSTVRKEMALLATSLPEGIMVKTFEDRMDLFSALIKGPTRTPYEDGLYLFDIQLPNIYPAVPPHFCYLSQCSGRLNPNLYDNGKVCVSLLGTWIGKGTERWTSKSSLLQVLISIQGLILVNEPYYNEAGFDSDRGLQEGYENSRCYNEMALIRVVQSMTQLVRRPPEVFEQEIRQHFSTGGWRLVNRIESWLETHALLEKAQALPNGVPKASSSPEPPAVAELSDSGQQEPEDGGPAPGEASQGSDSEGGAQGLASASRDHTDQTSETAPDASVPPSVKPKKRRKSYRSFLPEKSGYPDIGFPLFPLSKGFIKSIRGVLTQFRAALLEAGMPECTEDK", "test": "direct LC-MS/MS profiling of modified tryptic peptides", "assay_type": "cell-based", "conditions": "covalent at Cys370; H358 cells, […] AMG510, […] h (methods print […] h)"}, "Ank2; ANK2": {"target": "Ank2; ANK2 (Mus musculus, UniProt Q8C8R3)", "sequence (Q8C8R3 whole entry)": "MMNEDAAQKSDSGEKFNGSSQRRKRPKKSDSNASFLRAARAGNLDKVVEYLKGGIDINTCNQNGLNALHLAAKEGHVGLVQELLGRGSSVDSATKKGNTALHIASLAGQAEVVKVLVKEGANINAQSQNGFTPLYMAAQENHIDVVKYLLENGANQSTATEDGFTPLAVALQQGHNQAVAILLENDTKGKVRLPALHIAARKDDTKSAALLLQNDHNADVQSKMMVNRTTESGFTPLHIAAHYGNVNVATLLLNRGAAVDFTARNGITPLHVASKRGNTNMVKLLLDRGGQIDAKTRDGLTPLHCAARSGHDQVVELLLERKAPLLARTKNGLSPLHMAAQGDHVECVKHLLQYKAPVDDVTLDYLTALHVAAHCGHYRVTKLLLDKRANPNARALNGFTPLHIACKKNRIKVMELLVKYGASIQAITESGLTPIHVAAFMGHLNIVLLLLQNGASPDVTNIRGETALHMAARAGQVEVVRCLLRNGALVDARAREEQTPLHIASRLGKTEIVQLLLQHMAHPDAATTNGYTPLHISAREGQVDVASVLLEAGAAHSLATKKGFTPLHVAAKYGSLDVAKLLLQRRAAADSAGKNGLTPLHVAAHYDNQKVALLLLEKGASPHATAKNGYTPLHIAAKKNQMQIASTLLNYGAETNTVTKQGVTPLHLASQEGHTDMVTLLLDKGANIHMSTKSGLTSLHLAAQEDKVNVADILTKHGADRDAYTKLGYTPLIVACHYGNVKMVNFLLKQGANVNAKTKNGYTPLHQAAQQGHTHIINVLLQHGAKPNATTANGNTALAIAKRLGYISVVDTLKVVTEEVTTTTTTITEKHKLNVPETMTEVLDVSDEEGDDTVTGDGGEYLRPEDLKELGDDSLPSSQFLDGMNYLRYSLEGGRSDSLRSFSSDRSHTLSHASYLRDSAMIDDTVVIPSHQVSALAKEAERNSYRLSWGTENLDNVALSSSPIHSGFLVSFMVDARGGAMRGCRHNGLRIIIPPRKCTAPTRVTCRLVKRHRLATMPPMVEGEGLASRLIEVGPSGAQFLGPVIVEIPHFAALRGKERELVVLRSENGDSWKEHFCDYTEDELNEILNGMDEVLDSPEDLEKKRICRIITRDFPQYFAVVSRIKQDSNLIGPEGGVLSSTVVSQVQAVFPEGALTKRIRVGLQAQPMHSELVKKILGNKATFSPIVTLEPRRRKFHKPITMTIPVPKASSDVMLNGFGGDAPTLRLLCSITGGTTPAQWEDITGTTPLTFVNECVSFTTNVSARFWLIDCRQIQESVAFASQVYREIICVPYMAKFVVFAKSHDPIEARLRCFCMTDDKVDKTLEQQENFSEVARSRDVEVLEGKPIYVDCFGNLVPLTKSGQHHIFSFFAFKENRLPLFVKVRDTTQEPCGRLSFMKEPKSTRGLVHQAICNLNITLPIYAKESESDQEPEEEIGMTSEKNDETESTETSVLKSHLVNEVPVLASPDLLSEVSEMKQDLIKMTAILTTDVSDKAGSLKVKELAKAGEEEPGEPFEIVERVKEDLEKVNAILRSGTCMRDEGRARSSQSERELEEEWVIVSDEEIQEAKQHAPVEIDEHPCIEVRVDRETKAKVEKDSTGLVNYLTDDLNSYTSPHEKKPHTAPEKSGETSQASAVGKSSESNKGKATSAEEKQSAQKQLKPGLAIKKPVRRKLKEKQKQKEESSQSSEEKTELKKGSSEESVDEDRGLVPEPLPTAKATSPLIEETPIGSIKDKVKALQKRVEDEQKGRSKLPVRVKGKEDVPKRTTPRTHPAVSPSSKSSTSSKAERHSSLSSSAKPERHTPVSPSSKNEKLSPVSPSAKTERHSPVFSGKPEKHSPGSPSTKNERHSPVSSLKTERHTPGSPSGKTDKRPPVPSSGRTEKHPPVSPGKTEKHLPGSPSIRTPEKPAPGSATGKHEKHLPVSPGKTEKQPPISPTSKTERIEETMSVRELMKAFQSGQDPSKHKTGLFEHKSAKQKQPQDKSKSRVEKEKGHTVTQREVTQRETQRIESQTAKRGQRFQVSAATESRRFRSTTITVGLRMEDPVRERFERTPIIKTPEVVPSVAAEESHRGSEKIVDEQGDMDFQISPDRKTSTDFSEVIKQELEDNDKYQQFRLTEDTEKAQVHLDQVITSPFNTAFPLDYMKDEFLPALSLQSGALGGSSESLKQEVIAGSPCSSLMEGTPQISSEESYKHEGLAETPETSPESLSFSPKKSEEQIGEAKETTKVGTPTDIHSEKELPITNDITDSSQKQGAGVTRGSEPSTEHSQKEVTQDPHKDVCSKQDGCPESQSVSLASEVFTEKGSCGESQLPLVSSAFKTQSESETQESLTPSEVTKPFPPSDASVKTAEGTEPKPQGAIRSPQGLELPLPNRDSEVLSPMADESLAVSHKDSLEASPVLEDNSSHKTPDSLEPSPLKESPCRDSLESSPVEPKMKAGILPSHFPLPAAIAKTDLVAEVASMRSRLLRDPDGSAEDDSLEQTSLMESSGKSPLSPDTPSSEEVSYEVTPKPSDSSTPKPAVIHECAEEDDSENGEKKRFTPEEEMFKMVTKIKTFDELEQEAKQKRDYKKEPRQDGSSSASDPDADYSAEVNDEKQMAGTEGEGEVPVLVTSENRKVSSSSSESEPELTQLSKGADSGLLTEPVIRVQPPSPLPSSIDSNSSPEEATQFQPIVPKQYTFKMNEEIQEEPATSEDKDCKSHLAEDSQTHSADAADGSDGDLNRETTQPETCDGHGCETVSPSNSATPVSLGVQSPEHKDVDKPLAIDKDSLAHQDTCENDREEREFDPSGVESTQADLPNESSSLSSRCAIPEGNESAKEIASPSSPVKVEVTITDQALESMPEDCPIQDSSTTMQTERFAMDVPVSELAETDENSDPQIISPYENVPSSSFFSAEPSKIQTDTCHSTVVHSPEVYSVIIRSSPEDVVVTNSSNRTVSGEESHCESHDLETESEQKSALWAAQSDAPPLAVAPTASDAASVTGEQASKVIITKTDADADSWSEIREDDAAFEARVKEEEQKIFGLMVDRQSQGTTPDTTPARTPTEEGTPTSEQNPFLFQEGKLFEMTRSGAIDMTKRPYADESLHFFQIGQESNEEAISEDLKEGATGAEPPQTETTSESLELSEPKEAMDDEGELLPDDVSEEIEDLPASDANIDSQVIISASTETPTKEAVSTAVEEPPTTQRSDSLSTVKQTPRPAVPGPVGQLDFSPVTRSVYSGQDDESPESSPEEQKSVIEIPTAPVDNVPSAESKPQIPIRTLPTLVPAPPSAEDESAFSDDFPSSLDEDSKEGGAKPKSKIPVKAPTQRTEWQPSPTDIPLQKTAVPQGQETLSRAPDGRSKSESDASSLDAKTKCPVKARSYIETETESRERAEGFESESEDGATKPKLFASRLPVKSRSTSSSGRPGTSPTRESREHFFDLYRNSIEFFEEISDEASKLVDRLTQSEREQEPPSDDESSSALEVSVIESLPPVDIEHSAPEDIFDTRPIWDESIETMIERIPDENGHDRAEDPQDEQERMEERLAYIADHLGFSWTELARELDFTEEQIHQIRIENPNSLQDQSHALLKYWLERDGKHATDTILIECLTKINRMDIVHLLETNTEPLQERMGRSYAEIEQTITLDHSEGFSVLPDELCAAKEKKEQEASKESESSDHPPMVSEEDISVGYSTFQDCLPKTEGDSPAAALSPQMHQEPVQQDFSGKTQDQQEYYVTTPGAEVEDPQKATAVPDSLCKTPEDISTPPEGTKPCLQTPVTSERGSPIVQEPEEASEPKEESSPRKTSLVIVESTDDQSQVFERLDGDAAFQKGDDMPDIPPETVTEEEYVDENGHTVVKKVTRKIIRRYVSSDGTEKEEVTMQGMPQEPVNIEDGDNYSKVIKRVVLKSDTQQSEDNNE", "test": "anti-AMG510 peptide IP and LC-MS/MS of heart tissue", "conditions": "covalent at Cys3737; mice dosed orally […] mg/kg/day for […] days"}, "ALDOA [2]": {"target": "T2, ALDOA", "test": "colorimetric aldolase activity kit", "assay_type": "cell-based", "conditions": "covalent; […] AMG510 or vehicle, […] min"}}, "data": [{"smiles": "C=CC(=O)N1CCN(c2nc(=O)n(-c3c(C)ccnc3C(C)C)c3nc(-c4c(O)cccc4F)c(F)cc23)[C@@H](C)C1", "note": "[AMG510]", "values": [{"measurement": "direct LC-MS/MS profiling of modified tryptic peptides", "setting": "PLOD3", "result": "They included enzymes (PLOD3 C691, RPE C5, SPTLC2 C99, UBE2O C370, and TK1 C3)"}, {"measurement": "direct LC-MS/MS profiling of modified tryptic peptides", "setting": "ANXA2", "result": "multifunctional membrane-binding protein (ANXA2 C9)"}, {"measurement": "LC-MS/MS site mapping", "setting": "ALDOA [1]", "result": "We first confirmed that Cys339 was also endogenously modified by AMG510 in H358 cells"}, {"measurement": "direct LC-MS/MS profiling of modified tryptic peptides", "setting": "UBE2O", "result": "They included enzymes (PLOD3 C691, RPE C5, SPTLC2 C99, UBE2O C370, and TK1 C3)"}, {"measurement": "anti-AMG510 peptide IP and LC-MS/MS of heart tissue", "setting": "Ank2; ANK2", "result": "Ank2 was modified by AMG510 at Cys3737 in the mouse heart tissue"}, {"measurement": "aldolase activity", "setting": "ALDOA [2]", "result": "The ALDOA enzyme activity assay showed that the activity was indeed inhibited by the AMG510"}]}]}
